Experimental data published in patent publication US20040006236A1, “Diaminopropionic acid derivatives” (priority 1999, published 2004).
Where two headings read alike, the source gives them in different places.

Legend:
[1] = molecular target: T1, LFA-1 binding to immobilized ICAM-1 (Homo sapiens, UniProt P05107+P20701); test: LFA-1/ICAM-1 protein-protein assay (solid-phase ELISA)
T1 construct: made in house; host or cells: transfected 293 cells (LFA-1)
Experimental: (a) LFA-1/ICAM-1 screening test: LFA-1/ICAM-1 antagonist activity, defined as the ability of compounds of the invention to block LFA-1 binding to immobilized ICAM-1, was quantitated using a solid-phase ELISA.
(§1) Typically, fusion protein consisting of the entire extracellular domain of human ICAM-1 and the Fc domain of human IgG (5dICAM-Ig) was coated onto 96-well microtiter plates (0.15 μg in 100 μL PBS) overnight at 4° C. The plates were then blocked with 150 μL of 1% BSA/1 mM MnCl2/0.14 M NaCl/20 mM HEPES, pH 7.2 for 1 h at 37° C. and washed 3 times (150 μL each) with Wash Buffer (50 mM Tris, pH 7.4/100 mM NaCl/1 mM MnCl2/0.05% Tween 20). Stock solutions (100 μM in 100% DMSO) of test compounds were diluted 50 fold with 150 μL of Binding Buffer (0.05% BSA/0.05% Tween 20/1 mM MnCl2/0.14 M NaCl/20 mM HEPES, pH 7.2) plus 10% DMSO. […] Fifty μL per well of each dilution was added to the ICAM-1 coated plates, followed by 50 μL per well of membrane-bound LFA-1 (280 ng/mL in Binding Buffer) derived from transfected 293 cells. The plates were shaken vigorously for 1 min (room temperature) and gently for 2 h (37° C.). After incubation, the plates were washed 3 times (150 μL each) with Wash Buffer. Mouse anti-human integrin β2 monoclonal antibody was added (100 μL/well, 1 μg/mL in Binding Buffer) and allowed to incubate for 1 h (37° C.) with gentle agitation. The plates were then washed 3 times with Wash Buffer. HRP-conjugated goat anti-mouse IgG (100 μL/well, 1:1500 dilution in Binding Buffer) was added to each well, followed by incubation for 1 h (37° C.), and concluded by three washes (150 μL each) with Wash Buffer. TMB solution (100 μL per well) was added for color development (10 min). The reaction was stopped by the addition of 100 μL of 1 M H3PO4 to each well. The plates were then read at 450 nm. The inhibitory activities of test compounds were determined by the IC50s.
as §1, with “LFA-1/ICAM-1 antagonist activity, defined as the ability to block LFA-1 binding to immobilized ICAM-1, was quantitated using a solid-phase ELISA. Typically,” for “Typically,”, “(0.05 %” for “(0.05%”, “nm.” for “nm. The inhibitory activities of test compounds were determined by the IC50s.”

[2] = molecular target: T2, ICAM-1 binding to immobilized Mac-1 (Homo sapiens, UniProt P05107+P11215); test: Mac-1/ICAM-1 screening assay (solid-phase ELISA)
T2 construct: made in house; host or cells: transfected 293 cells (Mac-1)
T2 sequence (P05107 23-769, other chains not shown): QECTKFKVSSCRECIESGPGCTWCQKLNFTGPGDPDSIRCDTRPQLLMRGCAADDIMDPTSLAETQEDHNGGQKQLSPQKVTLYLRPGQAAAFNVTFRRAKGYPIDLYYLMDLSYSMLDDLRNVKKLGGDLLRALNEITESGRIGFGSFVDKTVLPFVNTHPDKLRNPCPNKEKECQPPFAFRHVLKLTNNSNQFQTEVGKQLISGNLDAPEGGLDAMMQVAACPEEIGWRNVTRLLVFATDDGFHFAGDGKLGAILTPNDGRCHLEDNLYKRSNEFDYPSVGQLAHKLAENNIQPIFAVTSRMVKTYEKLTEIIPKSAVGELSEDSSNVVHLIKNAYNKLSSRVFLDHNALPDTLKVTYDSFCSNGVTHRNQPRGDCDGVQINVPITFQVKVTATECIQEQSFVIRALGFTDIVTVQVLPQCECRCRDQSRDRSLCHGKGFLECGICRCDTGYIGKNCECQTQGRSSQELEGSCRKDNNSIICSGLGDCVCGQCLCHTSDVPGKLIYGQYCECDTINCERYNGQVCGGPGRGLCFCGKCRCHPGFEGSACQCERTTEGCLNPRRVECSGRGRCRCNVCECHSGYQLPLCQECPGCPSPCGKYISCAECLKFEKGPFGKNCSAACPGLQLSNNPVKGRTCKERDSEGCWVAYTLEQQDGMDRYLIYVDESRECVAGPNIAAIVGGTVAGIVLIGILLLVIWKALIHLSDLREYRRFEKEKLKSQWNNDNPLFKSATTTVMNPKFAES
Experimental: (b) Mac-1/ICAM-1 screening test: Mac-1/ICAM-1 antagonist activity, defined as the ability to compete with ICAM-1 binding to immobilized Mac-1, was quantitated by a solid-phase ELISA.
(§2) Membrane-bound Mac-1 derived from transfected 293 cells was coated onto 96-well microtiter plates (50 μL/well, 3 μg/mL Mac-1 in 20 mM Hepes, pH 7.2/0.14 M NaCl/1 mM MnCl2) overnight at 4° C. The plates were blocked with 100 μL/well of 0.5% BSA in 20 mM Hepes, pH 7.2/0.14 M NaCl/1 mM MnCl2 at 37° C. for 1 h and washed 3 times (120 μL each) with Binding Buffer (20 mM Hepes, pH 7.2/0.14 M NaCl/1 mM MnCl2/0.05% Tween 20). Test compounds were dissolved in 100% DMSO and diluted 1:50 in Binding Buffer plus 10% DMSO. A series of 1:4 dilutions were performed for each compound (concentration range, 0.12 nM-20 μM). Each dilution (25 μL/well) was added to the plates, followed by 25 μL/well of 5 dICAM-Ig (40 μg/mL in Binding Buffer). The plates were shaken vigorously for 1 min (room temperature), followed by gentle agitation for 2 h (37° C.), and washed with Binding Buffer (3 times, 120 μL each). HRP-conjugated goat anti-human IgG(Fc-specific) antibody (0.125 μg/mL in Binding Buffer plus 0.05% BSA) was added to each well (50 μL/well), followed by incubation for 1 h at 37° C. The plates were then washed 3 times with Binding Buffer (120 μL each). TMB solution (100 μL/well) was added to each well for color development for 10 min. The reaction was stopped with 1 M H3PO4 (100 μL/well) and the plates were read at 450 nm. The inhibitory activities of test compounds were determined by the IC50s.
as §2, with “Mac-1/ICAM-1 antagonist activity, defined as the ability to compete with ICAM-1 binding to immobilized Mac-1, was quantitated by a solid-phase ELISA. Membrane-bound” for “Membrane-bound”, “5dICAM-Ig” for “5 dICAM-Ig”, “nm.” for “nm. The inhibitory activities of test compounds were determined by the IC50s.”

[3] = read-out: LFA-1/ICAM-1 Protein-Protein Assay IC50
[4] = read-out: Mac-1/ICAM-1 Protein-Protein Assay IC50

T1 sequence (P20701 26-1170): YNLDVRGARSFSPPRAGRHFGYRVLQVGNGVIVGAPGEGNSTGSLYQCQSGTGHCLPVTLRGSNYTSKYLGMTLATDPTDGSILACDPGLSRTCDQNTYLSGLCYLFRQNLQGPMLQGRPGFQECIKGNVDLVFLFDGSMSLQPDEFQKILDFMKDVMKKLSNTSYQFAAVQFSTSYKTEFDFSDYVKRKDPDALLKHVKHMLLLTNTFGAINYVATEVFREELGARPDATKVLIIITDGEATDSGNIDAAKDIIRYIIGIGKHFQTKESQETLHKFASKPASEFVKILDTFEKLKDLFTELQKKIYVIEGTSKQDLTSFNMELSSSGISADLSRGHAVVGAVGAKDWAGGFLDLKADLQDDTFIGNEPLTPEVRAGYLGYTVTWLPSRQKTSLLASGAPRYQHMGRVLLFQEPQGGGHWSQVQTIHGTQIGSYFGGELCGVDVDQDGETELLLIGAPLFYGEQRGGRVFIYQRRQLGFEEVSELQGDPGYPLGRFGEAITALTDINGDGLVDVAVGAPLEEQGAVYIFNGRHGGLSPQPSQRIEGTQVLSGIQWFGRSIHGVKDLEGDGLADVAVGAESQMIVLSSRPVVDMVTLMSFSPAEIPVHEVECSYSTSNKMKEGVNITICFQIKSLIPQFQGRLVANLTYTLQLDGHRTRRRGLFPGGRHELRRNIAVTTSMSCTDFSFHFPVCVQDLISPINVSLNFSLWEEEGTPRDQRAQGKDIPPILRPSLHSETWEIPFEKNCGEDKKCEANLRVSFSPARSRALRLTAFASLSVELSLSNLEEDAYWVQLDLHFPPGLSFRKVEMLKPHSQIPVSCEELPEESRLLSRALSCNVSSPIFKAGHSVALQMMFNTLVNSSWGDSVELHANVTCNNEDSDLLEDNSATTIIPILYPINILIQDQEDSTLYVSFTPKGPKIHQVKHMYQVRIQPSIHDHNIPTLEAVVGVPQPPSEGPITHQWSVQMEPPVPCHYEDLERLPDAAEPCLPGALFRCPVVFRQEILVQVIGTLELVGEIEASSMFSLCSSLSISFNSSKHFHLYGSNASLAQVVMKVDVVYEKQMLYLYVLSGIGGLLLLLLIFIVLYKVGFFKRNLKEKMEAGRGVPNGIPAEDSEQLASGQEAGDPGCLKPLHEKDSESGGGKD
T1 sequence (P05107 23-769): as the sequence (P05107 23-769, other chains not shown) above

SMILES | IC50 ([1]; read-out: LFA-1/ICAM IC50) [nM] | IC50 ([2]; read-out: Mac-1/ICAM IC50) [nM] | IC50 [1, 3] [nM] | IC50 [2, 4] [nM]
COc1cccc(C(=O)NC[C@H](NC(=O)c2ccc(C(=O)NCc3cccc(O)c3)cc2Cl)C(=O)O)c1 [Compound A, N-[2-chloro-4-[[[(3-hydroxyphenyl)methyl]amino]carbonyl]benzoyl]-3-(3-methoxybenzoyl)amino-L-alanine] | 1.2 | 43.4 | – | –
O=C(NCc1cccc(O)c1)c1ccc(C(=O)N[C@@H](CNC(=O)c2ccccc2)C(=O)O)c(Cl)c1 [Compound B, 3-benzoylamino-N-[2-chloro-4-[[[(3-hydroxyphenyl)methyl]amino]carbonyl]benzoyl]-L-alanine] | 0.9 | 31.2 | – | –
O=C(NCc1cccc(O)c1)c1ccc(C(=O)N[C@@H](CNC(=O)c2cc([N+](=O)[O-])[nH]n2)C(=O)O)c(Cl)c1 [Compound C, N-[2-chloro-4-[[[(3-hydroxyphenyl)methyl]amino]carbonyl]benzoyl]-3-(5-nitropyrazole-3-carbonyl)amino-L-alanine] | 6.4 | 101 | – | –
O=C(NCc1cccc(O)c1)c1ccc(C(=O)N[C@@H](CNC(=O)c2cccs2)C(=O)O)c(Cl)c1 [Compound D, N-[2-chloro-4-[[[(3-hydroxyphenyl)methyl]amino]carbonyl]benzoyl]-3-(thiophene-2-carbonyl)amino-L-alanine] | 0.5 | 6.4 | – | –
COc1cc(C(=O)NC[C@H](NC(=O)c2ccc(C(=O)NCc3cccc(O)c3)cc2Cl)C(=O)O)nc2ccccc12 [Compound E, N-[2-chloro-4-[[[(3-hydroxyphenyl)methyl]amino]carbonyl]benzoyl]-3-(4-methoxyquinoline-2-carbonyl)amino-L-alanine] | 15.2 | 521 | – | –
O=C(NC[C@H](NC(=O)c1c(Cl)cccc1Cl)C(=O)O)c1ccc(Br)s1 [Compound F, 3-(5-bromothiophene-2-carbonyl)amino-N-(2,6-dichlorobenzoyl)-L-alanine] | 6.4 | 81.7 | – | –
O=C(NCc1cccc2[nH]ccc12)c1ccc(C(=O)N[C@@H](CNC(=O)c2cccs2)C(=O)O)c(Cl)c1 [Compound G, N-[2-chloro-4-[[(1H-indol-4-ylmethyl)amino]carbonyl]benzoyl]-3-(thiophene-2-carbonyl)amino-L-alanine] | 1.3 | 22.4 | – | –
O=C(CCc1cccc(O)c1)c1ccc(C(=O)N[C@@H](CNC(=O)c2cccs2)C(=O)O)c(Cl)c1 [Compound H, N-[2-chloro-4-[1-oxo-3-(3-hydroxyphenyl)propyl]benzoyl]-3-(thiophene-2-carbonyl)amino-L-alanine] | 1.4 | 43.4 | – | –
O=C(NC[C@H](NC(=O)c1ccc(-n2nnnc2NCc2cccc(O)c2)cc1Cl)C(=O)O)c1cccs1 [Compound I, N-[2-chloro-4-[5-[[(3-hydroxyphenyl)methyl]amino]tetrazol-1-yl]benzoyl]-3-(thiophene-2-carbonyl)amino-L-alanine] | 2.6 | 75.5 | – | –
O=C(NCc1cccc2[nH]ccc12)c1ccc(C(=O)N[C@@H](CNCc2ccccc2)C(=O)O)c(Cl)c1 [Compound J, 3-(phenylmethyl)amino-N-[2-chloro-4-[[(1H-indol-4-ylmethyl)amino]carbonyl]benzoyl]-L-alanine] | 11.9 | 1410 | – | –

Continued, values first:

IC50 ([1]; read-out: LFA-1/ICAM IC50) [nM] | IC50 ([2]; read-out: Mac-1/ICAM IC50) [nM] | IC50 [1, 3] [nM] | IC50 [2, 4] [nM] | SMILES
– | – | 1 | 105 | O=C(NCc1cccc(O)c1)c1ccc(C(=O)N[C@@H](CNC(=O)c2ccccn2)C(=O)O)c(Cl)c1 [Example 162]
– | – | 3 | 68 | O=C(NCc1cccc(O)c1)c1ccc(C(=O)N[C@@H](CNC(=O)c2cccnc2Cl)C(=O)O)c(Cl)c1 [Example 166]
– | – | 2.2 | 39 | O=C(NCc1cccc(O)c1)c1ccc(C(=O)N[C@@H](CNC(=O)c2ccc(Cl)nc2)C(=O)O)c(Cl)c1 [Example 167]
– | – | 12 | 224 | COc1ccc(C(=O)NC[C@H](NC(=O)c2ccc(C(=O)NCc3cccc(O)c3)cc2Cl)C(=O)O)c(OC)n1 [Example 168]
– | – | 1 | 136 | O=C(NCc1cccc(O)c1)c1ccc(C(=O)N[C@@H](CNC(=O)c2nccnc2C(=O)Nc2ccc(Cl)cn2)C(=O)O)c(Cl)c1 [Example 171]
– | – | 7 | 538 | O=C(NCc1cccc(O)c1)c1ccc(C(=O)N[C@@H](CNC(=O)c2c[nH]c(=O)[nH]c2=O)C(=O)O)c(Cl)c1 [Example 172]
